Test results as given in US20220289679A1, “HETEROCYCLIC COMPOUND” (Takeda Pharmaceutical Company Limited, priority 2019, published 2022).

molecular target: T1, human GCS (glucosylceramide synthase) (Homo sapiens, UniProt Q16739); assay: Glucosylceramide Synthase (GCS) Assay; assay type: biochemical; conditions: test compound 10 μM; microsome fraction of Expi293F cells expressing human GCS; 1.7 μM UDP-glucose, 3 μM C8 ceramide; room temperature 60 min; C8 glucosylceramide by Rapidfire MS/MS; read-out: GCS enzyme inhibitory rate at 10 μM (%)
T1 construct: made in house; host or cells: Expi293F cells (transient expression; microsome fraction)
T1 sequence (Q16739 1-394): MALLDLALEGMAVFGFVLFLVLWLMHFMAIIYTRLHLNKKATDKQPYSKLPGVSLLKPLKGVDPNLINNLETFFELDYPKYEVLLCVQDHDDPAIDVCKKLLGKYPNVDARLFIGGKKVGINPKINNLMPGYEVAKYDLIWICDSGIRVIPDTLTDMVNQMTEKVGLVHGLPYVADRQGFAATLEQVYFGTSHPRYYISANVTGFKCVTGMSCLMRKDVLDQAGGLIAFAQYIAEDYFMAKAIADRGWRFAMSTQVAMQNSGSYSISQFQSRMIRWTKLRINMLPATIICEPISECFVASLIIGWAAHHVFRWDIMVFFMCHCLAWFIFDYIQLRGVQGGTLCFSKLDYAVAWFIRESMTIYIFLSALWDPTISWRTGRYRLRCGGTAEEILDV
Outline: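 Test compounds were run at a final 10 μM against liposomal C8 ceramide (3 μM) and UDP-glucose at its Km (1.7 μM). Human GCS came as microsomes from transfected Expi293F cells, incubated 60 min at room temperature, pH 7.5. Product measured by RapidFire MS/MS; 0% and 100% inhibition were DMSO and no-enzyme wells.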

Row | SMILES | inhibition at 10 µM
1 | CC(C)(O)COc1ccc(NC(=O)c2cccn(-c3ccc(F)cc3OCC(F)(F)F)c2=O)cc1 [Example 60, 1-[4-fluoro-2-(2,2,2-trifluoroethoxy)phenyl]-N-[4-(2-hydroxy-2-methylpropoxy)phenyl]-2-oxo-1,2-dihydropyridine-3-carboxamide] | 92%
2 | O=C(Nc1ccc(OCCC(F)(F)F)nc1)c1cccn(-c2ccc(F)cc2OCC(F)(F)F)c1=O [Example 64, 1-[4-fluoro-2-(2,2,2-trifluoroethoxy)phenyl]-2-oxo-N-[6-(3,3,3-trifluoropropoxy)pyridin-3-yl]-1,2-dihydropyridine-3-carboxamide] | 99%
3 | O=C(Nc1cnn(CC2(F)CC2)c1)c1cccn(-c2ccc(F)cc2OCC(F)(F)F)c1=O [Example 66, N-{1-[(1-fluorocyclopropyl)methyl]-1H-pyrazol-4-yl}-1-[4-fluoro-2-(2,2,2-trifluoroethoxy)phenyl]-2-oxo-1,2-dihydropyridine-3-carboxamide] | 60%
4 | CC(C)(O)COc1cc(F)ccc1-n1cccc(C(=O)Nc2ccc(OCC(F)(F)F)nc2)c1=O [Example 67, 1-[4-fluoro-2-(2-hydroxy-2-methylpropoxy)phenyl]-2-oxo-N-[6-(2,2,2-trifluoroethoxy)pyridin-3-yl]-1,2-dihydropyridine-3-carboxamide] | 89%
5 | CC(C)(O)COc1ccc(NC(=O)c2cccn(-c3ccccc3OCC(F)(F)F)c2=O)cc1 [Example 70, N-[4-(2-hydroxy-2-methylpropoxy)phenyl]-2-oxo-1-[2-(2,2,2-trifluoroethoxy)phenyl]-1,2-dihydropyridine-3-carboxamide] | 97%
6 | O=C(Nc1ccc(COCC(F)(F)F)nc1)c1cccn(-c2ccc(F)cc2OCC(F)(F)F)c1=O [Example 73, 1-[4-fluoro-2-(2,2,2-trifluoroethoxy)phenyl]-2-oxo-N-{6-[(2,2,2-trifluoroethoxy)methyl]pyridin-3-yl}-1,2-dihydropyridine-3-carboxamide] | 99%
7 | O=C(Nc1ccc(C(O)(C(F)F)C(F)F)cc1)c1cccn(-c2ccccc2OCC(F)(F)F)c1=O [Example 77, 2-oxo-N-[4-(1,1,3,3-tetrafluoro-2-hydroxypropan-2-yl)phenyl]-1-[2-(2,2,2-trifluoroethoxy)phenyl]-1,2-dihydropyridine-3-carboxamide] | 100%
8 | O=C(Nc1ccc(C(O)(C(F)F)C(F)F)cc1)c1cccn(-c2ccc(F)cc2OCC(F)(F)F)c1=O [Example 78, 1-[4-fluoro-2-(2,2,2-trifluoroethoxy)phenyl]-2-oxo-N-[4-(1,1,3,3-tetrafluoro-2-hydroxypropan-2-yl)phenyl]-1,2-dihydropyridine-3-carboxamide] | 100%
9 | O=C(Nc1ccc(OCC(F)(F)F)nc1)c1cccn(-c2ccnnc2OCC(F)(F)F)c1=O [Example 79, 2-oxo-1-[3-(2,2,2-trifluoroethoxy)pyridazin-4-yl]-N-[6-(2,2,2-trifluoroethoxy)pyridin-3-yl]-1,2-dihydropyridine-3-carboxamide] | 87%
10 | CC(C)(O)c1ccc(NC(=O)c2cccn(-c3ccccc3OCC(F)(F)F)c2=O)cc1F [Example 82, N-[3-fluoro-4-(2-hydroxypropan-2-yl)phenyl]-2-oxo-1-[2-(2,2,2-trifluoroethoxy)phenyl]-1,2-dihydropyridine-3-carboxamide] | 99%

Next, values leading:

Row | inhibition at 10 µM | SMILES
11 | 95% | N#CCc1ccc(NC(=O)c2cccn(-c3ccc(F)cc3OCC(F)(F)F)c2=O)cc1 [Example 57, N-[4-(cyanomethyl)phenyl]-1-[4-fluoro-2-(2,2,2-trifluoroethoxy)phenyl]-2-oxo-1,2-dihydropyridine-3-carboxamide]
12 | 99% | CC(C)(O)c1ccc(NC(=O)c2cccn(-c3ccc(F)cc3OCC(F)(F)C(F)(F)F)c2=O)cc1 [Example 58, 1-[4-fluoro-2-(2,2,3,3,3-pentafluoropropoxy)phenyl]-N-[4-(2-hydroxypropan-2-yl)phenyl]-2-oxo-1,2-dihydropyridine-3-carboxamide]
13 | 95% | CC(C)(O)Cc1ccc(NC(=O)c2cccn(-c3ccc(F)cc3OCC(F)(F)F)c2=O)cc1 [Example 61, 1-[4-fluoro-2-(2,2,2-trifluoroethoxy)phenyl]-N-[4-(2-hydroxy-2-methylpropyl)phenyl]-2-oxo-1,2-dihydropyridine-3-carboxamide]
14 | 77% | O=C(Nc1cnn(CC(F)(F)C(F)(F)F)c1)c1cccn(-c2ccc(F)cc2OCC(F)(F)F)c1=O [Example 62, 1-[4-fluoro-2-(2,2,2-trifluoroethoxy)phenyl]-2-oxo-N-[1-(2,2,3,3,3-pentafluoropropyl)-1H-pyrazol-4-yl]-1,2-dihydropyridine-3-carboxamide]
15 | 100% | CC(C)(O)c1ccc(NC(=O)c2cccn(-c3ccccc3OCC(F)(F)F)c2=O)cc1 [Example 63]
16 | 97% | Cc1cccc(OCC(F)(F)F)c1-n1cccc(C(=O)Nc2ccc(C(C)(C)O)cc2)c1=O [Example 68, N-[4-(2-hydroxypropan-2-yl)phenyl]-1-[2-methyl-6-(2,2,2-trifluoroethoxy)phenyl]-2-oxo-1,2-dihydropyridine-3-carboxamide]
17 | 99% | O=C(Nc1ccc(C2(O)CC2)cc1)c1cccn(-c2ccc(F)cc2OCC(F)(F)F)c1=O [Example 69, 1-[4-fluoro-2-(2,2,2-trifluoroethoxy)phenyl]-N-[4-(1-hydroxycyclopropyl)phenyl]-2-oxo-1,2-dihydropyridine-3-carboxamide]
18 | 99% | O=C(Nc1ccc(COCC(F)(F)F)nc1)c1cccn(-c2ccccc2OCC(F)(F)F)c1=O [Example 74, 2-oxo-N-{6-[(2,2,2-trifluoroethoxy)methyl]pyridin-3-yl}-1-[2-(2,2,2-trifluoroethoxy)phenyl]-1,2-dihydropyridine-3-carboxamide]
19 | 71% | N#CCc1ccc(NC(=O)c2cccn(-c3ccc(F)cc3OCC(F)(F)F)c2=O)cn1 [Example 80, N-[6-(cyanomethyl)pyridin-3-yl]-1-[4-fluoro-2-(2,2,2-trifluoroethoxy)phenyl]-2-oxo-1,2-dihydropyridine-3-carboxamide]
20 | 98% | CC(C)(O)c1ccc(NC(=O)c2cccn(-c3ccc(F)cc3OCC(F)(F)F)c2=O)cc1F [Example 83, N-[3-fluoro-4-(2-hydroxypropan-2-yl)phenyl]-1-[4-fluoro-2-(2,2,2-trifluoroethoxy)phenyl]-2-oxo-1,2-dihydropyridine-3-carboxamide]
21 | 98% | CC(C)(O)c1ccc(NC(=O)c2cccn(-c3ccccc3OCC(F)(F)F)c2=O)cn1 [Example 84, N-[6-(2-hydroxypropan-2-yl)pyridin-3-yl]-2-oxo-1-[2-(2,2,2-trifluoroethoxy)phenyl]-1,2-dihydropyridine-3-carboxamide]
22 | 94% | CC(C)(O)c1ccc(NC(=O)c2cccn(-c3ccc(F)cc3OCC(F)(F)F)c2=O)cn1 [Example 85, 1-[4-fluoro-2-(2,2,2-trifluoroethoxy)phenyl]-N-[6-(2-hydroxypropan-2-yl)pyridin-3-yl]-2-oxo-1,2-dihydropyridine-3-carboxamide]
23 | 88% | N#CCc1ccc(NC(=O)c2cccn(-c3ccccc3OCC(F)(F)F)c2=O)cn1 [Example 86, N-[6-(cyanomethyl)pyridin-3-yl]-2-oxo-1-[2-(2,2,2-trifluoroethoxy)phenyl]-1,2-dihydropyridine-3-carboxamide]
